In ChEMBL document CHEMBL3351856, “Structural revision of kynapcin-12 by total synthesis, and inhibitory activities against prolyl oligopeptidase and cancer cells” (Bioorg Med Chem Lett, 2014):
Bridge positions count the residues as written; N and C are the ends. Peptide text beside a SMILES is read from it.

What was measured:
cells = conditions: Homo sapiens, HL-60, 48 h
Description: Cytotoxicity against human HL60 cells after 48 hrs by MTT assay

Prolyl endopeptidase = target: T1, Prolyl endopeptidase (Homo sapiens, UniProt P48147); assay: Inhibition of prolyl oligopeptidase (unknown origin)
T1 sequence (P48147 whole entry): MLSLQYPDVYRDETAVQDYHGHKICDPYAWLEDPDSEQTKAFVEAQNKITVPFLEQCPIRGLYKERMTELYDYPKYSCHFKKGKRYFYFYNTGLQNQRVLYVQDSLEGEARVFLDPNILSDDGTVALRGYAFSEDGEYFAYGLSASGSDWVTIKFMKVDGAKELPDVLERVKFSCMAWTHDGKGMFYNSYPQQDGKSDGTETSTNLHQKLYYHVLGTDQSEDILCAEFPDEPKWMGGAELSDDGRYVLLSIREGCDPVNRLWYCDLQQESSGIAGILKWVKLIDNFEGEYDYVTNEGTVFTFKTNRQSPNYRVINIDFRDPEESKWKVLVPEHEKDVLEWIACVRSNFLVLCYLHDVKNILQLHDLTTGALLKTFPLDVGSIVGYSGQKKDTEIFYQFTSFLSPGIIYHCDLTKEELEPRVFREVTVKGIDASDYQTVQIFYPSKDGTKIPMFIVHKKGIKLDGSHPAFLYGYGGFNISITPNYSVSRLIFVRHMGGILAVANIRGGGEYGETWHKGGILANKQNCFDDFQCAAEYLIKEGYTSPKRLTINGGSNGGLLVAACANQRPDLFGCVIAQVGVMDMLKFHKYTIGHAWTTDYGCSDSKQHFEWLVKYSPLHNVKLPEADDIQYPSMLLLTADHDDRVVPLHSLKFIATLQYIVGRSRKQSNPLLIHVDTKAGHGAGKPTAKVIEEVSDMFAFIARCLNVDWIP

SMILES	IC50 (cells) [µM]	IC50 (Prolyl endopeptidase) [µM]
COCc1c(OC(C)=O)c(-c2ccc(O[Si](C)(C)C(C)(C)C)cc2)c(COC)c(OC(C)=O)c1-c1ccc(O[Si](C)(C)C(C)(C)C)cc1	19.1	> 50
CC(=O)OC1=C(c2ccc(O)cc2)C(=O)C(OC(C)=O)=C(c2ccc(O)cc2)C1=O	> 20	
COCc1c(COC)c(-c2ccc(O[Si](C)(C)C(C)(C)C)cc2)c(COC)c(COC)c1-c1ccc(O[Si](C)(C)C(C)(C)C)cc1	14.4	> 50
CC[C@H](C)[C@H](NC(=O)[C@H](Cc1ccccc1)NC(=O)[C@@H](NC(=O)[C@H](Cc1cnc[nH]1)NC(=O)CNC(=O)CNC(=O)[C@H](Cc1ccccc1)NC(=O)[C@H](CC(C)C)NC(=O)[C@@H]1CC(=O)NCC(=O)N[C@@H](Cc2ccc(O)cc2)C(=O)N2CCC[C@H]2C(=O)N[C@@H](Cc2c[nH]c3ccccc23)C(=O)N[C@@H](Cc2c[nH]c3ccccc23)C(=O)N[C@@H](CC(=O)O)C(=O)N[C@@H](Cc2ccc(O)cc2)C(=O)N[C@@H](CCCNC(=N)N)C(=O)N1)[C@@H](C)O)C(=O)N[C@@H](CO)C(=O)N1CCC[C@H]1C(=O)O (GYPWWDYRDLFGGHTFISP-OH; lactam N-9)		1.4
CC(=O)Oc1c(OC(C)=O)c(-c2ccc(O[Si](C)(C)C(C)(C)C)cc2)c2c(c1-c1ccc(O[Si](C)(C)C(C)(C)C)cc1)OC(OC(C)=O)O2	4.2	3.5
CC(=O)Oc1c(OC(C)=O)c(-c2ccc(O)cc2)c(O)c(O)c1-c1ccc(O)cc1	> 20	

Next, values leading:

IC50 (cells) [µM]	IC50 (Prolyl endopeptidase) [µM]	SMILES
2.8	15.1	CC(C)(C)[Si](C)(C)Oc1ccc(C2=C3OCOC3=C(c3ccc(O[Si](C)(C)C(C)(C)C)cc3)C(=O)C2=O)cc1
6.5		COCC1=C(c2ccc(O[Si](C)(C)C(C)(C)C)cc2)C(=O)C(COC)=C(c2ccc(O[Si](C)(C)C(C)(C)C)cc2)C1=O
2.9		CC(=O)Oc1c(OC(C)=O)c(-c2ccc(O[Si](C)(C)C(C)(C)C)cc2)c2c(c1-c1ccc(O[Si](C)(C)C(C)(C)C)cc1)OCO2
